Series [1] can be described thus: Cytotoxicity against HUVEC cells assessed as reduction in cell viability incubated for 48 hrs by MTT assay. The conditions noted are these: human. The series is classed as toxicity, cell-based. (In general: Tetrazolium dyes change colour on reduction, which living cells bring about.)
Series [2] in a line: Cytotoxicity against HK-2 cells assessed as reduction in cell viability incubated for 48 hrs by MTT assay. It is filed as toxicity, cell-based. Particulars: human.
The subject of another series is HCT-116. The series is described as follows: Antiproliferative activity against human HCT-116 cells assessed as reduction in cell viability incubated for 48 hrs by MTT assay. It is filed as functional, cell-based. Particulars: HCT-116, 48 h.
The subject of a further series is 786-0. The series is described as follows: Antiproliferative activity against human 786-0 cells assessed as reduction in cell viability incubated for 48 hrs by MTT assay. It is filed as functional, cell-based. The conditions noted are these: 786-0, 48 h.
The next series deals with HCC827. Nature of the series: Antiproliferative activity against human HCC827 cells assessed as reduction in cell viability incubated for 48 hrs by MTT assay. Particulars: HCC827, 48 h. It is filed as functional, cell-based.
A further series has as its system K562. Nature of the series: Antiproliferative activity against human K562 cells assessed as reduction in cell viability incubated for 48 hrs by MTT assay. The conditions noted are these: K562, 48 h. The series is classed as functional, cell-based.
The test system of the next series is MGC-803. Nature of the series: Antiproliferative activity against human MGC-803 cells assessed as reduction in cell viability incubated for 48 hrs by MTT assay. The series is classed as functional, cell-based. Particulars: MGC-803, 48 h.
Another series has as its system HepG2. Nature of the series: Antiproliferative activity against human HepG2 cells assessed as reduction in cell viability incubated for 48 hrs by MTT assay. Particulars: HepG2, 48 h. It is filed as functional, cell-based.

Residues, ends and D or L forms follow the SMILES beside them.

As for `COc1ccc(CN2C(=O)C(=O)c3cc(-c4ccc(CO)cc4)ccc32)cc1`, the IC50 at 48 h came to 18.8 µM in series [1] and 12.6 µM in series [2]. Besides, the IC50 was 0.786 µM with HCT-116; 40.4 µM with 786-0; 34.7 µM in the series with HCC827; 0.81 µM with K562; 29.2 µM in the series on MGC-803; greater than 100 µM with HepG2.
In the case of `COc1ccc(CN2C(=O)C(=O)c3cc(-c4ccc(OC)cc4)cc(N)c32)cc1`, the half-maximal inhibitory concentration (IC50) at 48 h in series [1] and in series [2] was greater than 100 µM each time. For the same compound, the IC50 is greater than 100 µM with HCT-116; greater than 100 µM in the series on 786-0; 13.7 µM in the series with HCC827; 89.4 µM with K562; greater than 100 µM with MGC-803; greater than 100 µM in the series on HepG2.
As for `COc1ccc(CN2C(=O)C(=O)c3cc(-c4ccc(OC)cc4)cc([N+](=O)[O-])c32)cc1`, the IC50 at 48 h in series [1] was 10.6 µM; in series [2], 1.21 µM. Further, the IC50 in the series on HCT-116 was 0.263 µM; in the series with 786-0, 15.2 µM; with HCC827, 3.62 µM; in the series with K562, 0.47 µM; in the series on MGC-803, 58.2 µM; with HepG2, greater than 100 µM.
In the case of `COC(=O)c1ccc(-c2ccc3c(c2)C(=O)C(=O)N3Cc2ccc(OC)cc2)cc1`, the figures for the IC50 at 48 h in series [1] and in series [2] were 81.7 µM and 8.54 µM, respectively. Besides, the IC50 in the series with HCT-116 was 1.6 µM; with 786-0, 138 µM; with HCC827, 12 µM; in the series with K562, 2.07 µM; with MGC-803, 86.2 µM; in the series with HepG2 it was greater than 100 µM.
With `COc1ccc(CN2C(=O)C(=O)c3cc(-c4ccc(COC(C)=O)cc4)ccc32)cc1`, the IC50 at 48 h is 34.7 µM in series [1] and 9.02 µM in series [2]. Further, the IC50 is 2.02 µM in the series on HCT-116; 50.5 µM with 786-0; 29.3 µM in the series on HCC827; 1.14 µM in the series on K562; greater than 100 µM in the series on MGC-803; 6.78 µM with HepG2.
For `COc1ccc(CN2C(=O)C(=O)c3cc(-c4ccc(OC)cc4)ccc32)cc1`, the IC50 at 48 h turned out to be 27.2 µM in series [1] and 10.5 µM in series [2]. Besides, the IC50 with HCT-116 worked out at 0.768 µM; in the series on 786-0, 51.4 µM; with HCC827, 10.1 µM; with K562, 0.31 µM; with MGC-803 it was 19 µM; in the series on HepG2 it was 43 µM.
Turning to `COc1ccc(CN2C(=O)C(=O)c3cc(-c4ccc(SC)cc4)ccc32)cc1`, the IC50 at 48 h amounted to 25 µM in series [1] and 13.4 µM in series [2]. In addition, the IC50 worked out at 0.728 µM with HCT-116; 30.8 µM in the series on 786-0; 4.15 µM in the series with HCC827; 0.5 µM with K562; 76.5 µM in the series with MGC-803; 71 µM in the series on HepG2.
As for `COc1ccc(CN2C(=O)C(=O)c3cc(-c4ccc(C(=O)O)cc4)ccc32)cc1`, the IC50 at 48 h was 34.7 µM in series [1] and 30.9 µM in series [2]. Moreover, the IC50 with HCT-116 is 18.7 µM; in the series with 786-0, 87.6 µM; in the series with HCC827, 4.15 µM; with K562, greater than 100 µM; with MGC-803, 91.1 µM; with HepG2, greater than 100 µM.
In the case of `CCN(CC)CCNC(=O)c1c(C)[nH]c(/C=C2\C(=O)Nc3ccc(F)cc32)c1C` [SUNITINIB], the IC50 at 48 h turned out to be 7.7 µM in series [1] and 6.88 µM in series [2]. The IC50 is 2.23 µM in the series with HCT-116; 9.02 µM with 786-0; 1.34 µM in the series on HCC827; 1.25 µM in the series on K562; 8.25 µM in the series with MGC-803; 4.7 µM in the series on HepG2.
Take `CC(=O)N[C@@H](CCCCN)C(=O)N1CCC[C@H]1C(=O)N[C@@H](CO)C(=O)N[C@@H](CO)C(=O)N1CCC[C@H]1C(=O)N1CCC[C@H]1C(=O)N[C@@H](CCC(=O)O)C(=O)N[C@@H](CCC(=O)O)C(N)=O` (Ac-KPSSPPEE-NH2): the IC50 at 48 h in series [1] is greater than 100 µM. Besides, in the series with HCT-116, the IC50 is greater than 100 µM.

One may read the IC50 as the concentration at which inhibition is half-maximal.

For the origin of these results see ChEMBL document CHEMBL6121041, “Design and synthesis of isatin derivative payloaded peptide-drug conjugate as tubulin inhibitor against colorectal cancer” (Eur J Med Chem, 2025).
